In patent US12421224B2 (BIOGEN MA INC., priority 2019, dated 2025):

Target: T1, Recombinant full length human OGA enzyme (Homo sapiens, UniProt O60502)
T1 construct: Recombinant full length human OGA enzyme; purchased Origene
T1 sequence (O60502 1-916): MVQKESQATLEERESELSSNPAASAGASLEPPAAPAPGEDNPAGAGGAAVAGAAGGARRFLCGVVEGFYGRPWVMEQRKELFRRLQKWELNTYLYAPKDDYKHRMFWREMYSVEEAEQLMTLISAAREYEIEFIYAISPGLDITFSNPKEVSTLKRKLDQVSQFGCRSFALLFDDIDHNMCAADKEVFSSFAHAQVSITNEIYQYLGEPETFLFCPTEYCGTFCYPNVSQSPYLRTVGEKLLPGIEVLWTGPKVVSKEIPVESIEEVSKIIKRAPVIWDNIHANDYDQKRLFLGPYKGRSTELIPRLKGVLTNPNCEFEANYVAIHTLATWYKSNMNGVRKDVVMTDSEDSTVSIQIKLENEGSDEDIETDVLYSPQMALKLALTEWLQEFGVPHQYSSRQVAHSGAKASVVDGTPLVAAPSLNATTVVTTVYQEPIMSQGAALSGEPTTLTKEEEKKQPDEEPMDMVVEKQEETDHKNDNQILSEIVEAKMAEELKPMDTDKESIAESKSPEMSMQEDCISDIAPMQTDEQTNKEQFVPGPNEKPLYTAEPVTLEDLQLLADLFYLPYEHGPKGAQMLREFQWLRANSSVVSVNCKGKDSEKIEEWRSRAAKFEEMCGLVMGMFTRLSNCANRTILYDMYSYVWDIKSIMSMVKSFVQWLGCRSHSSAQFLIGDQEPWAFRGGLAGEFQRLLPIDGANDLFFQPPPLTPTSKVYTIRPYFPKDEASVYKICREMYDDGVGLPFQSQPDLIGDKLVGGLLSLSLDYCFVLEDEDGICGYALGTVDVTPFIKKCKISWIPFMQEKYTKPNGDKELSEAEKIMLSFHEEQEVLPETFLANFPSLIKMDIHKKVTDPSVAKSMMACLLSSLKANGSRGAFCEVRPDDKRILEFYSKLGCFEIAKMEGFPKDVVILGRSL
Experiment: OGA Enzyme Inhibition Biochemical Assay
Details: 1 nM OGA, 100 μM 4-MUGlcNAc (Km), pH 6.4, 90 minutes at room temperature, 10-point dose-response starting from 20 μM
Experimental: OGA Enzyme Inhibition Biochemical Assay
Recombinant full length human OGA enzyme was purchased from Origene. 4-MUGlCNAc substrate was purchased from Sigma. All other reagents were purchased from Sigma or Fisher. Assay buffer consists of the Mcllvaine buffer system, pH 6.4 (0.2M Na2HPO4 mixed with 0.1M citric acid) and 0.01% BSA. Reactions consist of 1 nM OGA, 100 μM 4-MUGlcNAc (Km), and compound in a final volume of 10 μl. Reactions were incubated for 90 minutes at room temperature and quenched with […] of 3M glycine, pH 10 and read on a Perkin Elmer Envision plate reader (Ex: 355 nm/Em: 460 nm). Compounds were tested with a 10-point dose-response starting from 20 μM with a 4-fold dilution. Data was fit using GraphPad Prism using a 4-parameter fit with variable slope.

| IC50 [nM] | Molecule |
| --- | --- |
| 610 | COc1cc(NCC2CN(Cc3cnc(NC(C)=O)s3)C2)ccn1 [Example 2-25, N-(5-((3-(((2-methoxypyridin-4-yl)amino)methyl)azetidin-1-yl)methyl)thiazol-2-yl)acetamide] |
| 800 | CC(=O)Nc1ncc(CN2C[C@@H](Nc3ccc(F)cn3)[C@H]2C)s1 [Example 2-15, N-(5-(((2R,3R)-3-((5-fluoropyridin-2-yl)amino)-2-methylazetidin-1-yl)methyl)thiazol-2-yl)acetamide] |
| 570 | COc1cc(N[C@@H]2CN(Cc3cnc(NC(C)=O)s3)[C@@H]2C)ccn1 [Example 2-16, N-(5-(((2R,3R)-3-((2-methoxypyridin-4-yl)amino)-2-methylazetidin-1-yl)methyl)thiazol-2-yl)acetamide] |
| 1300 | CC(=O)Nc1ncc(CN2CC(CNc3cc(C)nc(C)n3)C2)s1 [Example 2-26, N-(5-((3-(((2,6-dimethylpyrimidin-4-yl)amino)methyl)azetidin-1-yl)methyl)thiazol-2-yl)acetamide] |
| 33 | COc1cc(NC2CN(Cc3cnc(NC(C)=O)s3)C2)ccn1 [Example 2-12, N-(5-((3-((2-methoxypyridin-4-yl)amino)azetidin-1-yl)methyl)thiazol-2-yl)acetamide] |
| 1400 | CC(=O)Nc1ncc(CN2CC(CNc3cc(C)nc(C)c3)C2)s1 [Example 2-24, N-(5-((3-(((2,6-dimethylpyridin-4-yl)amino)methyl)azetidin-1-yl)methyl)thiazol-2-yl)acetamide] |
| 220 | CC(=O)Nc1ncc(CN2CC(OCc3noc(C)n3)C2)s1 [Example 1-3, N-(5-((3-((5-methyl-1,2,4-oxadiazol-3-yl)methoxy)azetidin-1-yl)methyl)thiazol-2-yl)acetamide] |
| 450 | CC(=O)Nc1ncc(CN2C[C@@H](Oc3ccc(F)cn3)[C@H]2C)s1 [Example 2-8, N-(5-(((2R,3R)-3-((5-fluoropyridin-2-yl)oxy)-2-methylazetidin-1-yl)methyl)thiazol-2-yl)acetamide] |
| 600 | COc1cc(O[C@@H]2CN(Cc3cnc(NC(C)=O)s3)[C@@H]2C)ncn1 (single isomer, unassigned) [Example 2-10] |
| 580 | CC(=O)Nc1ncc(CN2CC(Cc3ccccc3)C2)s1 [Example 4-2, N-(5-((3-benzylazetidin-1-yl)methyl)thiazol-2-yl)acetamide] |
| 480 | CC(=O)Nc1ncc(CN2CC(COc3cc(C)nc(C)c3)C2)s1 [Example 2-20, N-(5-((3-(((2,6-dimethylpyridin-4-yl)oxy)methyl)azetidin-1-yl)methyl)thiazol-2-yl)acetamide] |
| 440 | CC(=O)Nc1ncc(CN2C[C@@H](Oc3ccc(C#N)cn3)[C@H]2C)s1 [Example 2-31, N-(5-(((2R,3R)-3-((5-cyanopyridin-2-yl)oxy)-2-methylazetidin-1-yl)methyl)thiazol-2-yl)acetamide] |
| 130 | CC(=O)Nc1ncc(CN2CC(Nc3ccc(F)cn3)C2)s1 [Example 2-14, N-(5-((3-((5-fluoropyridin-2-yl)amino)azetidin-1-yl)methyl)thiazol-2-yl)acetamide] |
| 1300 | CC(=O)Nc1ncc(CN2CC(COc3cc(C)nc(C)n3)C2)s1 [Example 2-21, N-(5-((3-(((2,6-dimethylpyrimidin-4-yl)oxy)methyl)azetidin-1-yl)methyl)thiazol-2-yl)acetamide] |
| 59 | CC(=O)Nc1ncc(CN2CC(Nc3ccc(C#N)cn3)C2)s1 [Example 2-13, N-(5-((3-((5-cyanopyridin-2-yl)amino)azetidin-1-yl)methyl)thiazol-2-yl)acetamide] |
| 47 | CCOc1cc(CC2CN(Cc3cnc(NC(C)=O)s3)C2)ccn1 [Example 4-1, N-(5-((3-((2-ethoxypyridin-4-yl)methyl)azetidin-1-yl)methyl)thiazol-2-yl)acetamide] |
| 11 | COc1cc(N[C@H]2CN(Cc3cnc(NC(C)=O)s3)[C@@H]2C)ccn1 [Example 2-17, N-(5-(((2R,3S)-3-((2-methoxypyridin-4-yl)amino)-2-methylazetidin-1-yl)methyl)thiazol-2-yl)acetamide] |
| 1500 | CC(=O)Nc1ncc(CN2CC(COc3ccc(F)cn3)C2)s1 [Example 2-22, N-(5-((3-(((5-fluoropyridin-2-yl)oxy)methyl)azetidin-1-yl)methyl)thiazol-2-yl)acetamide] |
| 570 | CC(=O)Nc1ncc(CN2C[C@@H](Oc3ncc(F)cn3)[C@H]2C)s1 [Example 2-29, N-(5-(((2R,3R)-3-((5-fluoropyrimidin-2-yl)oxy)-2-methylazetidin-1-yl)methyl)thiazol-2-yl)acetamide] |
| 350 | CC(=O)Nc1ncc(CN2CC(c3ncc(F)cn3)C2)s1 [Example 5-1] |
| 390 | CC(=O)Nc1ncc(CN2C[C@H](Oc3ncc(F)cn3)[C@H]2C)s1 [Example 2-33, N-(5-(((2R,3S)-3-((5-fluoropyrimidin-2-yl)oxy)-2-methylazetidin-1-yl)methyl)thiazol-2-yl)acetamide] |
| 480 | CC(=O)Nc1ncc(CN2CC(OCc3cc(C)nc(C)c3)C2)s1 [Example 1-2, N-(5-((3-((2,6-dimethylpyridin-4-yl)methoxy)azetidin-1-yl)methyl)thiazol-2-yl)acetamide] |
| 407 | COc1cc(NC2CN(Cc3cnc(NC(C)=O)s3)C2)ncn1 [Example 2-11] |
| 210 | COc1cc(O[C@H]2CN(Cc3cnc(NC(C)=O)s3)[C@@H]2C)ccn1 [Example 2-7, N-(5-(((2R,3S)-3-((2-methoxypyridin-4-yl)oxy)-2-methylazetidin-1-yl)methyl)thiazol-2-yl)acetamide] |
| 25 | CC(=O)Nc1ncc(CN2C[C@H](Nc3ccc(C#N)cn3)[C@H]2C)s1 [Example 2-19, N-(5-(((2R,3S)-3-((5-cyanopyridin-2-yl)amino)-2-methylazetidin-1-yl)methyl)thiazol-2-yl)acetamide] |
| 600 | COc1cc(O[C@H]2CN(Cc3cnc(NC(C)=O)s3)[C@@H]2C)ncn1 [Example 2-27, N-(5-(((2R,3S)-3-((6-methoxypyrimidin-4-yl)oxy)-2-methylazetidin-1-yl)methyl)thiazol-2-yl)acetamide] |
| 407 | COc1cc(OC2CN(Cc3cnc(NC(C)=O)s3)C2)ncn1 [Example 2-1, N-(5-((3-((6-methoxypyrimidin-4-yl)oxy)azetidin-1-yl)methyl)thiazol-2-yl)acetamide] |
| 170 | CC(=O)Nc1ncc(CN2C[C@H](Oc3ncc(F)cn3)[C@H]2C)s1 [Example 2-30, N-(5-(((2R,3S)-3-((5-fluoropyrimidin-2-yl)oxy)-2-methylazetidin-1-yl)methyl)thiazol-2-yl)acetamide] |
| 194 | CC(=O)Nc1ncc(CN2CC(c3ncnc4sccc34)C2)s1 [Example 5-2] |
| 110 | COc1cc(O[C@@H]2CN(Cc3cnc(NC(C)=O)s3)[C@@H]2C)ncn1 [Example 2-28, N-(5-(((2R,3R)-3-((6-methoxypyrimidin-4-yl)oxy)-2-methylazetidin-1-yl)methyl)thiazol-2-yl)acetamide] |

| Molecule | IC50 [nM] |
| --- | --- |
| N-(5-43-(((5-methyl-1,2,4-oxadiazol-3-yl)methyl)amino)azetidin-1-yl)methyl)thiazol-2-yl)acetamide [Example 3-3] | 900 |
